Legend:
[1] = system: MCF-7 xenografted and MDA-MB-231 xenografted murine models; assay: Xenograft studies; format: in vivo, nude mice
Description: (§1) Female nude immunodeficient mice (nu/nu) (weighing ~16 g, 5-week-old) were purchased from Hunan SJA Laboratory Animal Co., Ltd. (Changsha, China), and maintained under specific pathogen-free conditions. Mice were given free access to sterile water and to a standard diet, and maintained under controlled conditions of temperature (22–24°C), humidity (40–70%), and light (12 h light-dark cycles). The present study was approved by Animal Ethics Committee of Hubei University of Medicine. The mice were subcutaneously injected with human BC MDA-MB-231 cells (5 × 10^6 cells which were suspended in 100 μL DMEM) into the right flank of each mouse. Treatments started when tumors reached a palpable size (0.5 cm in diameter). Mice were randomly divided into the following two groups: control group (vehicle; 0.8% DMSO, 12% cremophor, and 8% ethanol in normal saline; n = 8) and Eth-treated group (intraperitoneal injection of […] Eth; n = 8). The mice were treated 5 times per week for a total of […]. Caliper measurements of the longest perpendicular tumor diameters were performed twice a week to estimate the tumor volume, using the following formula: 4π/3 × (width/2)^2 × (length/2), representing the three-dimensional volume of an ellipse. Animals were sacrificed when tumors reached 1.5 cm or if the mice appeared moribund to prevent unnecessary morbidity to the mice.
To determine the anti-tumor effect of Eth on BC in vivo, MCF-7 xenografted and MDA-MB-231 xenografted murine models were generated. Once the tumors grew to a measurable size, each group was administered with vehicle (MCF-7 = 8, MDA-MB-231 = 8) or Eth (MCF-7 = 8; MDA-MB-231 = 8) i.p. at 2 mg/kg four times a week for 4 weeks. The tumor-bearing mice were humanely killed when their tumors reached 1.5 cm in diameter or when paralysis or major compromise in their quality of life occurred. […]
(A–B): Murine models were treated with vehicle, Eth (2 mg/kg) and the tumor volumes were calculated twice a week. **P < 0.01. […] (H–I): The expressions of LC3-II, AMPKα, and pAMPKα in xenograft tumor tissues were analyzed by western blot. […]

[2] = Body weight of xenografted mice; format: in vivo, nude mice; settings: i.p. 2 mg/kg four times a week for 4 weeks
Description: as §1, with “mice. […]” for “mice.”

seven BC cell lines = assay: MTT assay, summary over BC cell lines; format: cell-based; settings: Homo sapiens, range over BC cell lines
Excerpt: Human BC cell lines MCF-7, MDA-MB-231, DMA-MB-436, SK-BR3, MDA-MB-468, MDA-MB-453, and MDA-MB-435S and non-tumorigenic MCF-10A human mammary epithelial cells were obtained from American Type Culture Collection (ATCC; Manassas, VA, USA). MCF-7, SK-BR3, MDA-MB-231, and MDA-MB-436 cells were maintained in Dulbecco’s modified Eagle’s medium (DMEM; high glucose; Gibco; Thermo Fisher Scientific, Inc., Waltham, MA, USA) supplemented with 10% fetal bovine serum (FBS; HyClone; Logan, UT, USA) and antibiotics and incubated in a humidified atmosphere with 5% CO2 at 37°C. MDA-MB-468, MDA-MB-453, and MDA-MB-435S cells were maintained in Leibovitz’s L-15 (Gibco) supplemented with 10% FBS and antibiotics and incubated in a humidified atmosphere without CO2 at 37°C. MCF-10A cells were maintained in DMEM/F12 medium containing 5% horse serum (HS), insulin ([…]), epidermal growth factor (EGF, 20 ng/mL), choleratoxin ([…]), hydrocortisone ([…]), penicillin (50 U/mL), and streptomycin (50 U/mL), and incubated in a humidified atmosphere with CO2 at 37°C.
Cells were seeded into 96-well plate and pre-cultured for 24 h, then treated with Eth for 24. Cell cytotoxicity was determined by MTT assay. […]

CCOC1c2c(ccc3c2OCO3)-c2ccc3cc4c(cc3c2N1C)OCO4 (centres unmarked) [Eth, Ethoxysanguinarine]
tumor weight ([1]; i.p. 2 mg/kg four times a week for 4 weeks): significantly reduced the tumor weight | tumor growth compared with vehicle control ([1]; i.p. 2 mg/kg four times a week for 4 weeks, P < 0.05): efficiently repressed tumor growth | expression levels of pAMPK and LC-3II in tumor specimens ([1]; western blot of xenograft tumors): upregulated | body weight of the mice [2]: did not significantly reduce the body weight | IC50 (seven BC cell lines): 2.63 to 9.15 µM
